One data set concerns the target RET (Homo sapiens, UniProt P07949). Description: In vitro enzyme activity test, RET kinase. It counts as biochemical. The note with it: ATP 20 μM. The protocol:
(§1) The enzyme activity was experimentally detected by Z'-LYTE™ kinase test, and the inhibitory effect of the compound on RET and RET (V804M) kinase was evaluated with the IC50 value of the compound as an indicator. The concentration of the compound used for the RET and RET (V804M) kinase test was diluted by a factor of 3, giving 10 concentrations from 3 μM to 0.152 nM. The content of DMSO in the detection reaction was 1%. Basic reaction buffer, 20 mM hydroxyethyl piperazine-ethanesulfonic acid (Hepes) (pH 7.5) buffer, 10 mM MgCl2, 1 mM ethylene glycol bis(aminoethyl ether)tetraacetic acid (EGTA), 0.02% polyoxyethylene dodecyl ether (Brij35), 0.02 mg/mL bovine serum protein, 0.1 mM Na3VO4, 2 mM dithiothreitol (DTT) and 1% DMSO. The compound to be tested was dissolved in 100% DMSO system and diluted to 10 mM for use. Integra Viaflo Assist was used for solution dilution. Test conditions: The concentration of RET enzyme was […], the concentration of the peptide substrate CHKtide was 1000 μM, and the concentration of ATP was 20 μM; and the concentration of RET (V804M) enzyme was […], the concentration of substrate peptide was 1000 μM, and the concentration of ATP was 30 μM. […]. Phosphoric acid with a concentration of 0.5% was added to the kinase reaction solution to stop the reaction, and Envision instrument was used for plate reading. […]

The target in another data set is RET (V804M) (Homo sapiens, UniProt P07949, V804M). The data set can be described thus: In vitro enzyme activity test, RET (V804M) kinase. It counts as biochemical. The settings on record: ATP 30 μM. The method, then:
as §1

Data set [1] in a line: Pharmacokinetic evaluation in mice (IV and PO). It counts as in vivo. The note with it: mouse, plasma, female Balb/c mice. The method, then: Experimental procedure: A 0.1 mg/mL clear solution of the test compound in the corresponding solvent medium (see Table 22) was injected into female Balb/c mice (fasting overnight, 7-9 weeks old) via tail vein at a dose of 0.2 mg/kg. About 30 μL of blood was collected from jugular vein or tail vein at 0.0833, 0.25, 0.5, 1.0, 2.0, 4.0, 8.0 and 24 h after intravenous administration. 0.2 mg/mL of the test compound suspended in the corresponding solvent medium (see Table 22) was given to female Balb/c mice (fasting overnight, 7-9 weeks old) by gavage at a dose of 2 mg/kg. The experimental conditions were detailed in Table 22. At 0.0833, 0.25, 0.5, 1.0, 2.0, 4.0, 6.0, 8.0 and 24 h after oral administration, about 30 μL of blood was collected from the jugular vein or tail vein of the female Balb/c mice. The blood was placed in an anticoagulant tube in which EDTA-K2 had been added, and plasma was separated by centrifugation. The plasma concentration was determined by LC-MS/MS method, and the relative pharmacokinetic parameters were calculated using WinNonlin™ Version 6.3 (Pharsight, Mountain View, CA) pharmacokinetic software by non-compartment model linear logarithmic trapezoidal method. [table]

In data set [2] the test system is Ba/F3-CCDC6-RET cell xenograft tumor model. Description: Analysis of tumor growth inhibition (TGI). The note with it: 10 mg/kg D0-D13 / 5 mg/kg D14-D17 / 2.5 mg/kg D18-D28, BID. In kind it is in vivo, BALB/c nude female mice. The method, then:
Ba/F3-CCDC6-RET cell strain was cultured using 1640 medium (Biological Industries)+10% fetal bovine serum (BI)+1% double antibody (Penicillin Streptomycin solution, Coring, USA) at 37° C. with 5% CO2 and subcultured twice a week. When the cell saturation is 80-90%, cells were collected, counted, and inoculated subcutaneously into the right axillary of BALB/c nude female mice (6-8 weeks). After the inoculation was completed, the tumor growth status was observed day by day. When the average tumor volume reached about 165.77 mm^3, the mice were randomly divided into groups, with 6 mice per group, and administration was started.
The health status and death of the animals were detected daily. Routine examinations included tumor growth, activity, diet, weight, eyes, hair and other abnormal behaviors of the animals, and the tumor volume and weight were measured twice a week (Tuesday and Friday).
The inhibitory effect of the compound on tumor growth was evaluated by the relationship between tumor volume and time. The tumor volume was measured by vernier caliper, with the formula being TV=0.5 a×b^2, wherein, “a” was the long diameter of the tumor and “b” was the short diameter of the tumor. […]
it was calculated by the following formula: […]

Data set [3] in a line: Hygroscopicity study by dynamic vapor sorption (DVS). The settings on record: 25° C. and 80% RH. It counts as physicochemical. The protocol: • Instrument model: SMS DVS Intrinsic dynamic vapor sorption instrument • Test conditions: A sample (10-15 mg) is taken and placed in a DVS sample tray for testing.
Detailed DVS Parameters are as Follows: • Temperature: 25° C. • Balance: dm/dt=0.01%/min (shortest: 10 min, longest: 180 min) • Drying: at 0% RH for 120 min • RH (%) test gradient: 10% • RH (%) test gradient range: 0%-90%-0%
Hygroscopicity Assessment is Classified as Follows:
SMS DVS Intrinsic Dynamic Vapor Sorption Instrument

Data set [4] is described as follows: Solid stability experiment, high temperature and high humidity (XRPD). In kind it is physicochemical. The text has this: For samples placed under high temperature and high humidity, use aluminum foil to seal the bottle, and prick some holes on the aluminum foil to ensure that the sample can fully contact with the ambient air. The samples placed under different conditions were sampled for XRPD detection on Days 5 and 10, and the test results were compared with the initial test results on Day 0.

A short description of data set [5]: Solid stability study, long-term conditions (XRPD). It counts as physicochemical. The settings on record: for Crystal form (XRPD): 3 months. The method, then: The flasks were placed under 40° C./75% RH conditions for 3 months or under 25° C./60% RH conditions for 3 months, then sampled for XRPD detection, and the detection results were compared with the initial test results of Day 0.

RET, sequence (P07949 29-1114): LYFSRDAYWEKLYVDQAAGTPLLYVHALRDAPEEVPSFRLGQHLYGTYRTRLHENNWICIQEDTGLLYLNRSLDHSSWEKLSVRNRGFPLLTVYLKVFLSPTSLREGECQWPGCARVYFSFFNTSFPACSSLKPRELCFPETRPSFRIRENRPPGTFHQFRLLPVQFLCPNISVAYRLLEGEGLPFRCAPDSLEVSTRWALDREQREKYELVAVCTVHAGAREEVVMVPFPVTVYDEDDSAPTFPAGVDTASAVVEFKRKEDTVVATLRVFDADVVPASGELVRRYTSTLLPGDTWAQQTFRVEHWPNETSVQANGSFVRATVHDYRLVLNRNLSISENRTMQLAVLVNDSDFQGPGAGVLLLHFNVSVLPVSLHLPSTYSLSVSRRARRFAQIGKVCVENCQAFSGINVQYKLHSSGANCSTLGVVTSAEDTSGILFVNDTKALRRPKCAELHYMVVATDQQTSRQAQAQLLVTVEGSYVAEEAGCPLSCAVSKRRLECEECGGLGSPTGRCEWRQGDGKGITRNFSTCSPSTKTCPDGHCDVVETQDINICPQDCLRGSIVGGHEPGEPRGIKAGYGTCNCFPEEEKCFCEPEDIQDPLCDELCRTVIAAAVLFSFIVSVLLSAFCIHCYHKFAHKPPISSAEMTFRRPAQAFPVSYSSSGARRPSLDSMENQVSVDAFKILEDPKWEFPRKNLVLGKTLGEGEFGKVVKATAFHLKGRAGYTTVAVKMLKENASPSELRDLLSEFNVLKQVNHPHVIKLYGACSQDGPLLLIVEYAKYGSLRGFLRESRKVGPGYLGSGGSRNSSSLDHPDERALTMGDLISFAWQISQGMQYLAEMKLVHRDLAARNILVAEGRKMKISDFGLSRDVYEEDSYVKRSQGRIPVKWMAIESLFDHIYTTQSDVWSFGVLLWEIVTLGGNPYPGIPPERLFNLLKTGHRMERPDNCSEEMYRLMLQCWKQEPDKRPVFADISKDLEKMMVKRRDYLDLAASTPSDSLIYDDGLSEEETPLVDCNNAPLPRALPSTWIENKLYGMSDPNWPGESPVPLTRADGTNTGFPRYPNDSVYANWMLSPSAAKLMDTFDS
RET (V804M), sequence (P07949 29-1114 V804M): as the sequence (P07949 29-1114) above, with V776M counted along it

With `COc1ccc(CN2C3CC2CN(c2cnc(-c4cc(C5=CCOCC5)cn5ncc(C#N)c45)cn2)C3)cn1` [listing 1 of 2 here], the IC50 – broadly, the concentration that gives 50% inhibition – against RET was found to be 0.72 nM; on RET (V804M) it was 5.86 nM. In addition, the area under the curve AUC(0-t) (commonly the area under the concentration-time curve up to a stated or last time point) was determined as 2.79 µM·h in data set [1] (IV 0.2 mg/kg) and 26.9 µM·h in data set [1] (PO 2 mg/kg). Besides, in data set [1] (IV 0.2 mg/kg, read-out: Cl (plasma clearance)), the clearance came out at 2.3 mL/min/kg. Further, in data set [1] (IV 0.2 mg/kg, read-out: T1/2 (elimination half-life) (converted)), the half-life was 2.6 h. Moreover, in data set [1] (IV 0.2 mg/kg, read-out: Vdss (apparent steady-state distribution volume)), the Vd amounted to 0.5 L/kg. Moreover, the Cmax – broadly, the maximum level reached in the sampled fluid or tissue – in data set [1] (PO 2 mg/kg) worked out at 5.34 µM. Moreover, the time of peak concentration (Tmax) (usually the time at which the peak concentration occurs) in data set [1] (PO 2 mg/kg) came to 2 h. For the same compound, the “TGI % (tumor volume on Day 23 after administration)” value in data set [2] amounted to 98%.
Regarding `COc1ccc(CN2C3CC2CN(c2cnc(-c4cc(C5=CCOCC5)cn5ncc(C#N)c45)cn2)C3)cn1` [listing 2 of 2 here], the Classification of hygroscopicity entry in data set [3] is “slightly hygroscopic”. Further, the “ΔW (hygroscopic weight gain)” value in data set [3] is given as 0.8%. For the same compound, the “Crystal form (XRPD)” value in data set [4] (High humidity (room temperature/relative humidity 92.5%, open), Day 5) is on record as “Crystal form A”; in data set [4] (High humidity (room temperature/relative humidity 92.5%, open), Day 10), “Crystal form A”; in data set [4] (High temperature (60° C., open), Day 5), “Crystal form A”; in data set [4] (High temperature (60° C., open), Day 10), “Crystal form A”; in data set [5] (25° C./60% RH), “Crystal form A”; in data set [5] (40° C./75% RH), “Crystal form A”. Also, the “Solid stability (in words)” value in data set [4] (high temperature and high humidity) was “good stability”; in data set [5] (long-term conditions) it was “good stability”. Moreover, the “Crystal form change (in words)” value in data set [5] (all stability conditions (40° C./75% RH, 25° C./60% RH, 3 months)) is listed as “no crystal form change”.

The values are drawn from patent US20230365596A1, “CRYSTAL FORMS OF PYRIDOPYRAZOLE COMPOUNDS AND PREPARATION METHOD THEREFOR” (GUANGZHOU BAIYUNSHAN PHARMACEUTICAL HOLDINGS CO., LTD. …, priority 2020, published 2023).
